This note sets out measurements from patent US11566057B2, “Long-acting co-agonists of the glucagon and GLP-1 receptors” (Merck Sharp & Dohme Corp., priority 2017, dated 2023).

One assay concerns the target T1, human GCGR (Homo sapiens, UniProt P47871).
T1 construct: expressed in transfected cells; growth medium holds Blasticidin and Hygromycin
The assay is described as follows: cAMP activity assay at the Glucagon receptor (GCGR). Type of assay: cell-based. The conditions noted are these: for hGCGR/hGLP1R (hTone): ratio of GCGR EC50 to GLP1R EC50. An outline of the steps: (§1)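 Peptides serially diluted from DMSO (10 points) and added to frozen-stock cells bearing human GLP1R (10,000 cells/well) or GCGR (30,000 cells/well), 1 h at RT, dark. EC50 by four-parameter logistic fit of HitHunter cAMPXS luminescence, read following overnight RT incubation.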

The target in another assay is T2, human GLP1R (Homo sapiens, UniProt P43220).
T2 construct: expressed in transfected cells; growth medium holds Blasticidin and Hygromycin
T2 sequence (P43220 24-463): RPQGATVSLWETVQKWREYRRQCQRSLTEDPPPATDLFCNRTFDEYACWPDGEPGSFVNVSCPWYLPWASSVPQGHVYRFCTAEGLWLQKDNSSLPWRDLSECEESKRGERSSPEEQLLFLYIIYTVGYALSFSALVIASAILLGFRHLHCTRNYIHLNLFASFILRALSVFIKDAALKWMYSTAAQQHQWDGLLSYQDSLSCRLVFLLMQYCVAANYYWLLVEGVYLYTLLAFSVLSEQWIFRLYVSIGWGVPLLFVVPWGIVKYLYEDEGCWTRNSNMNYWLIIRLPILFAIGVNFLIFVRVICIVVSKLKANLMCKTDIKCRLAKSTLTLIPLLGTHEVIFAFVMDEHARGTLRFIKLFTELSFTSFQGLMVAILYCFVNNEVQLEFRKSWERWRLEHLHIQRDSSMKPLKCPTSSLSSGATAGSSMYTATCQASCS
Kind of assay: cAMP activity assay at the GLP-1 receptor (GLP1R). In kind it is cell-based. An outline of the steps:
as §1

The mark [1] stands for this setting: summary statement: EC50 at each of the glucagon and GLP-1 receptors, read-out: EC50 at the glucagon receptor.
Where [2] appears, read: cells expressing human GLP1R, cAMP production, buffer with or without 20% human serum (not stated which), read-out: GLP1R EC50 human.
Where [3] appears, read: summary statement: EC50 at each of the glucagon and GLP-1 receptors, read-out: EC50 at the GLP-1 receptor.

The structures appear in SMILES notation. Read-outs that look alike come from different tables or passages of the source. Numbered stars: 1 amine (or outer) side, 2 acyl side, 3 side chain; on linkers, the order of the positions; unused ones are H or OH. Square brackets hold non-standard residues; d marks the D form. Side chains are listed from the residue outwards. Peptide text beside a SMILES is read from it. * marks the point of attachment. Phe(4-CH2NH2) = NCc1ccc(C[C@H](N)C(=O)O)cc1; C18 diacid = O=C(O)CCCCCCCCCCCCCCCCC(=O)*; αMeW = C[C@](N)(Cc1c[nH]c2ccccc12)C(=O)O; C16 diacid = O=C(O)CCCCCCCCCCCCCCC(=O)*; γGlu = O=C(O)[C@H](CCC(=O)[*:2])N[*:1]; Met(O2) = CS(=O)(=O)CC[C@H](N)C(=O)O; αMeD = C[C@](N)(CC(=O)O)C(=O)O; αMeS = C[C@](N)(CO)C(=O)O; AEEA = NCCOCCOCC(=O)O; Aib = CC(C)(N)C(=O)O

T1 sequence (P47871 26-477): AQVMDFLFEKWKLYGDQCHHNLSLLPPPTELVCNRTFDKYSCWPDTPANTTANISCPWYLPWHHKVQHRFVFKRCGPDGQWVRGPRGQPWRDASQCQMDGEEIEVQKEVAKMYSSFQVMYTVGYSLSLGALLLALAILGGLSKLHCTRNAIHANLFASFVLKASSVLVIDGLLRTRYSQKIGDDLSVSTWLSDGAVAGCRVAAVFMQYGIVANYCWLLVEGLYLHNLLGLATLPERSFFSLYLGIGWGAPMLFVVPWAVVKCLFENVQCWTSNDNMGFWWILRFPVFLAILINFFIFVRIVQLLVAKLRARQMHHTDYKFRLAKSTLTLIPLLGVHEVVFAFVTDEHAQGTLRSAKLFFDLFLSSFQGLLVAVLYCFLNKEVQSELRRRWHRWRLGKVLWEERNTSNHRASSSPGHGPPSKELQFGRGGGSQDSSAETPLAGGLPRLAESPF

In the case of `CC(C)C[C@H](NC(=O)[C@H](Cc1c[nH]c2ccccc12)NC(=O)[C@H](CCC(N)=O)NC(=O)[C@@H](NC(=O)[C@H](Cc1ccccc1)NC(=O)[C@H](CC(=O)O)NC(=O)[C@H](CCCCNC(=O)COCCOCCNC(=O)COCCOCCNC(=O)CC[C@H](NC(=O)CCCCCCCCCCCCCCCCCCC(=O)O)C(=O)O)NC(=O)[C@H](C)NC(=O)[C@H](C)NC(=O)[C@H](CCCNC(=N)N)NC(=O)C(C)(C)NC(=O)[C@H](CC(=O)O)NC(=O)[C@H](CC(C)C)NC(=O)[C@H](Cc1ccc(O)cc1)NC(=O)[C@H](CCCCN)NC(=O)[C@H](CO)NC(=O)[C@H](Cc1ccc(O)cc1)NC(=O)[C@H](CC(=O)O)NC(=O)[C@H](CO)NC(=O)[C@@H](NC(=O)[C@H](Cc1ccccc1)NC(=O)[C@@H](NC(=O)CNC(=O)[C@H](CCC(N)=O)NC(=O)[C@@H](CO)NC(=O)[C@@H](N)Cc1c[nH]cn1)[C@@H](C)O)[C@@H](C)O)C(C)C)C(=O)N[C@@H](CCS(C)(=O)=O)C(=O)N[C@@H](CC(=O)O)C(=O)N[C@H](C(N)=O)[C@@H](C)O` [TP578], the EC50 at human GCGR (setting [1]) was under 5 nM; at human GLP1R (setting [2]), 4.95 nM; at human GLP1R (setting [3]), under 5 nM.
With `CC(C)C[C@H](NC(=O)[C@H](Cc1c[nH]c2ccccc12)NC(=O)[C@H](CCC(N)=O)NC(=O)[C@@H](NC(=O)[C@H](Cc1ccccc1)NC(=O)[C@H](CC(=O)O)NC(=O)[C@H](CCCCNC(=O)COCCOCCNC(=O)COCCOCCNC(=O)CC[C@H](NC(=O)CCCCCCCCCCCCCCCCC(=O)O)C(=O)O)NC(=O)[C@H](C)NC(=O)[C@H](C)NC(=O)[C@H](CCCNC(=N)N)NC(=O)C(C)(C)NC(=O)[C@H](CC(=O)O)NC(=O)[C@H](CC(C)C)NC(=O)[C@H](Cc1ccc(O)cc1)NC(=O)[C@H](CCCCN)NC(=O)[C@H](CO)NC(=O)[C@H](Cc1ccc(O)cc1)NC(=O)[C@H](CC(=O)O)NC(=O)[C@H](CO)NC(=O)[C@@H](NC(=O)[C@H](Cc1ccccc1)NC(=O)[C@@H](NC(=O)CNC(=O)[C@H](CCC(N)=O)NC(=O)C(C)(C)NC(=O)[C@@H](N)Cc1c[nH]cn1)[C@@H](C)O)[C@@H](C)O)C(C)C)C(=O)N[C@@H](CCS(C)(=O)=O)C(=O)N[C@@H](CCC(=O)O)C(=O)N[C@H](C(N)=O)[C@@H](C)O` [TP673] (H-H[Aib]QGTFTSDYSKYLD[Aib]RAAK([AEEA-AEEA-γGlu-C18 diacid])DFVQWL[Met(O2)]ET-NH2; N-terminus assumed), the EC50 at human GCGR (cells expressing human GCGR, cAMP production, buffer with or without 20% human serum (not stated which), read-out: GCGR EC50 human) is 0.22 nM; on human GCGR (setting [1]), under 5 nM; on human GLP1R (setting [3]) it was under 5 nM. Also, on human GCGR, the “hGCGR/hGLP1R (hTone)” value amounted to 0.3.
`CC(C)C[C@H](NC(=O)[C@H](Cc1ccc(O)cc1)NC(=O)[C@H](CCCCN)NC(=O)[C@H](CO)NC(=O)[C@H](Cc1ccc(O)cc1)NC(=O)[C@H](CC(=O)O)NC(=O)[C@H](CO)NC(=O)[C@@H](NC(=O)[C@H](Cc1ccccc1)NC(=O)[C@@H](NC(=O)CNC(=O)[C@H](CCC(N)=O)NC(=O)C(C)(C)NC(=O)[C@@H](N)Cc1c[nH]cn1)[C@@H](C)O)[C@@H](C)O)C(=O)N[C@@H](CC(=O)O)C(=O)N[C@@H](C)C(=O)N[C@@H](CCCNC(=N)N)C(=O)N[C@@H](C)C(=O)N[C@@H](C)C(=O)N[C@@H](CCCCNC(=O)COCCOCCNC(=O)COCCOCCNC(=O)CC[C@H](NC(=O)CCCCCCCCCCCCCCC(=O)O)C(=O)O)C(=O)N[C@@H](CC(=O)O)C(=O)N[C@@H](Cc1ccccc1)C(=O)N[C@H](C(=O)N[C@@H](CCC(N)=O)C(=O)N[C@@H](Cc1c[nH]c2ccccc12)C(=O)N[C@@H](CC(C)C)C(=O)N[C@@H](CCS(C)(=O)=O)C(=O)N[C@@H](CCC(=O)O)C(=O)N[C@H](C(N)=O)[C@@H](C)O)C(C)C` [TP814] (H-H[Aib]QGTFTSDYSKYLDARAAK([AEEA-AEEA-γGlu-C16 diacid])DFVQWL[Met(O2)]ET-NH2; N-terminus assumed): the “hGCGR/hGLP1R (hTone)” value on human GCGR is 2.0. Besides, the EC50 at human GCGR (setting [1]) and at human GLP1R (setting [3]) was under 5 nM in each case.
Regarding `CC(C)C[C@H](NC(=O)[C@H](Cc1ccc(O)cc1)NC(=O)[C@H](CCCCN)NC(=O)[C@H](CO)NC(=O)[C@H](Cc1ccc(O)cc1)NC(=O)[C@H](CC(=O)O)NC(=O)[C@H](CO)NC(=O)[C@@H](NC(=O)[C@H](Cc1ccccc1)NC(=O)[C@@H](NC(=O)CNC(=O)[C@H](CCC(N)=O)NC(=O)[C@](C)(CO)NC(=O)[C@@H](N)Cc1c[nH]cn1)[C@@H](C)O)[C@@H](C)O)C(=O)N[C@@H](CC(=O)O)C(=O)N[C@@H](C)C(=O)N[C@@H](CCCNC(=N)N)C(=O)N[C@@H](C)C(=O)N[C@@H](C)C(=O)N[C@@H](CCC(N)=O)C(=O)N[C@@H](CCCCNC(=O)COCCOCCNC(=O)COCCOCCNC(=O)CC[C@H](NC(=O)CCCCCCCCCCCCCCCCC(=O)O)C(=O)O)C(=O)N[C@@H](Cc1ccccc1)C(=O)N[C@H](C(=O)N[C@@H](CCC(N)=O)C(=O)N[C@@H](Cc1c[nH]c2ccccc12)C(=O)N[C@@H](CC(C)C)C(=O)N[C@@H](CCS(C)(=O)=O)C(=O)N[C@@](C)(CC(=O)O)C(=O)N[C@H](C(N)=O)[C@@H](C)O)C(C)C` [TP617] (H-H[αMeS]QGTFTSDYSKYLDARAAQK([AEEA-AEEA-γGlu-C18 diacid])FVQWL[Met(O2)][αMeD]T-NH2), the “hGCGR/hGLP1R (hTone)” value on human GCGR is recorded as 0.8. For the same molecule, the EC50 on human GCGR (setting [1]) is under 5 nM; at human GLP1R (setting [2]) it was 0.76 nM; at human GLP1R (setting [3]) it was under 5 nM.
Take `CC(C)C[C@H](NC(=O)[C@H](Cc1ccc(O)cc1)NC(=O)[C@H](CCCCN)NC(=O)[C@H](CO)NC(=O)[C@H](Cc1ccc(O)cc1)NC(=O)[C@H](CC(=O)O)NC(=O)[C@H](CO)NC(=O)[C@@H](NC(=O)[C@H](Cc1ccccc1)NC(=O)[C@@H](NC(=O)CNC(=O)[C@H](CCC(N)=O)NC(=O)C(C)(C)NC(=O)[C@@H](N)Cc1c[nH]cn1)[C@@H](C)O)[C@@H](C)O)C(=O)N[C@@H](CC(=O)O)C(=O)N[C@@H](C)C(=O)N[C@@H](CCCNC(=N)N)C(=O)N[C@@H](C)C(=O)N[C@@H](C)C(=O)N[C@@H](CCC(N)=O)C(=O)N[C@@H](CCCCNC(=O)COCCOCCNC(=O)COCCOCCNC(=O)CC[C@H](NC(=O)CCCCCCCCCCCCCCC(=O)O)C(=O)O)C(=O)N[C@@H](Cc1ccccc1)C(=O)N[C@H](C(=O)N[C@@H](CCC(N)=O)C(=O)N[C@@H](Cc1c[nH]c2ccccc12)C(=O)N[C@@H](CC(C)C)C(=O)N[C@@H](CCS(C)(=O)=O)C(=O)N[C@@H](CCC(=O)N[C@H](C(N)=O)[C@@H](C)O)C(=O)O)C(C)C` [TP827] (H-H[Aib]QGTFTSDYSKYLDARAAQK([AEEA-AEEA-γGlu-C16 diacid])FVQWL[Met(O2)][γGlu]T-NH2): the “hGCGR/hGLP1R (hTone)” value on human GCGR turned out to be 1.6. For the same molecule, the EC50 at human GCGR (setting [1]) and at human GLP1R (setting [3]) was under 5 nM throughout.
On to `CC(C)C[C@H](NC(=O)[C@H](Cc1ccc(O)cc1)NC(=O)[C@H](CCCCN)NC(=O)[C@H](CO)NC(=O)[C@H](Cc1ccc(CNC(=O)COCCOCCNC(=O)COCCOCCNC(=O)CC[C@H](NC(=O)CCCCCCCCCCCCCCCCC(=O)O)C(=O)O)cc1)NC(=O)[C@H](CC(=O)O)NC(=O)[C@H](CO)NC(=O)[C@@H](NC(=O)[C@H](Cc1ccccc1)NC(=O)[C@@H](NC(=O)CNC(=O)[C@H](CCC(N)=O)NC(=O)C(C)(C)NC(=O)[C@@H](N)Cc1c[nH]cn1)[C@@H](C)O)[C@@H](C)O)C(=O)N[C@@H](CC(=O)O)C(=O)N[C@@H](C)C(=O)N[C@@H](CCCNC(=N)N)C(=O)N[C@@H](C)C(=O)N[C@@H](C)C(=O)N[C@@H](CCC(N)=O)C(=O)N[C@@H](CC(=O)O)C(=O)N[C@@H](Cc1ccccc1)C(=O)N[C@H](C(=O)N[C@@H](CCC(N)=O)C(=O)N[C@@](C)(Cc1c[nH]c2ccccc12)C(=O)N[C@@H](CC(C)C)C(=O)N[C@@H](CCS(C)(=O)=O)C(=O)N[C@@H](CC(=O)O)C(=O)N[C@H](C(N)=O)[C@@H](C)O)C(C)C` [TP625] (H-H[Aib]QGTFTSD[Phe(4-CH2NH2)]([AEEA-AEEA-γGlu-C18 diacid])SKYLDARAAQDFVQ[αMeW]L[Met(O2)]DT-NH2; N-terminus assumed), for which the “hGCGR/hGLP1R (hTone)” value at human GCGR was determined as 3.4. Also, the EC50 at human GCGR (setting [1]) and at human GLP1R (setting [3]) was under 5 nM each time.
For the molecule `CC(C)C[C@H](NC(=O)[C@H](Cc1ccc(O)cc1)NC(=O)[C@H](CCCCN)NC(=O)[C@H](CO)NC(=O)[C@H](Cc1ccc(CNC(=O)COCCOCCNC(=O)COCCOCCNC(=O)CC[C@H](NC(=O)CCCCCCCCCCCCCCCCC(=O)O)C(=O)O)cc1)NC(=O)[C@H](CC(=O)O)NC(=O)[C@H](CO)NC(=O)[C@@H](NC(=O)[C@H](Cc1ccccc1)NC(=O)[C@@H](NC(=O)CNC(=O)[C@H](CCC(N)=O)NC(=O)C(C)(C)NC(=O)[C@@H](N)Cc1c[nH]cn1)[C@@H](C)O)[C@@H](C)O)C(=O)N[C@@H](CC(=O)O)C(=O)N[C@@H](C)C(=O)N[C@@H](CCCNC(=N)N)C(=O)N[C@@H](C)C(=O)N[C@@H](C)C(=O)N[C@@H](CCC(N)=O)C(=O)N[C@@H](CC(=O)O)C(=O)N[C@@H](Cc1ccccc1)C(=O)N[C@H](C(=O)N[C@@H](CCC(N)=O)C(=O)N[C@@H](Cc1c[nH]c2ccccc12)C(=O)N[C@@H](CC(C)C)C(=O)N[C@@H](CCS(C)(=O)=O)C(=O)N[C@@](C)(CC(=O)O)C(=O)N[C@H](C(N)=O)[C@@H](C)O)C(C)C` [TP624] (H-H[Aib]QGTFTSD[Phe(4-CH2NH2)]([AEEA-AEEA-γGlu-C18 diacid])SKYLDARAAQDFVQWL[Met(O2)][αMeD]T-NH2; N-terminus assumed), the “hGCGR/hGLP1R (hTone)” value at human GCGR was found to be 1.1. For the same molecule, the concentration for a half-maximal effect (EC50) on human GCGR (setting [1]) and at human GLP1R (setting [3]) was under 5 nM throughout.
